Tests used:
[1] = biological target: T1, Rac1 protein (Homo sapiens, UniProt P63000); assay: Fluorescence Polarization Assay (Rac1 FP); type: binding; conditions: 125 nM his-tagged Rac1, 12.5 nM Bodipy-TR GTPγS, 30 minutes at 37° C.
T1 construct: purchased Cytoskeleton Inc. RC01
Experimental: Direct binding of Rac1 compound inhibitors to Rac1 protein was performed using fluorescence polarization (FP). Briefly, Rac1 inhibitors were initially dissolved in DMSO and then serial drug dilutions in exchange buffer (20 mM Tris pH 7.5, 50 mM NaCl, 1 mM MgCl, 1 mM EDTA) were prepared in a flat black 96-well half-area plate (Greiner). Recombinant his-tagged Rac1 protein (Cytoskeleton Inc. Cat. # RC01) was added to the inhibitors at a final concentration of 125 nM along with 12.5 nM Bodipy-TR GTPγS (Life Technologies Inc. Cat. # G35780) in exchange buffer and incubated for 30 minutes at 37° C. in exchange buffer. After 30 minutes of incubation. FP was measured on the M1000 Pro (Tecan) fluorescent plate reader with 590 nm±5 nm excitation and 625 nm±5 nm emission spectra settings.

[2] = tested on: MCF-7 human breast cancer cell line; assay: Cell Viability Assay (MCF7), PrestoBlue; type: cell-based; conditions: MCF7, 72 h, MCF-7 cells, three days after drug treatment
Experimental: In order to determine a compound's effect on cell viability, PrestoBlue assays were performed as previously described by Kuhn et al. (2013) with modifications. MCF-7 human breast cancer and IGR-1 human melanoma cell lines were seeded into 96-well plates 24 hours prior to addition of drug. Cells were treated with 0 to 200 μM (11 concentrations) of compound solubilized in DMSO, adjusting the final concentration of DMSO to 1% in the well. Three days after drug treatment, cell viability was measured by adding PrestoBlue (Life Technologies Ltd.; cat. No. A13262) reagent directly to wells containing media/drug to reach a final concentration of 10%. PrestoBlue is a modified molecule of the common Alamar Blue probe used to determine viability based on the ability of a cell to metabolize a nonfluorescent compound (resazurin) to a florescent molecule (resorufin). Following a 1 hour incubation period, total well fluorescence was measured using the microplate reader M1000 pro (Tecan) with excitation 560-5 nm and emission 590-5 nm. […] The percentage of living cells was then computed by comparison with control wells. Kuhn, Jonas et al., Assay and Drug Development Technologies, March 2013, Label-Free Cytotoxicity Screening Assay by Digital Holographic Microscopy.

[3] = biological target: His-Rac1 / GST-PBD (PAK Binding Domain) (Homo sapiens, UniProt P63000); assay: Rac Activation AlphaScreen Assay (Rac1 AS); type: biochemical; conditions: 500 nM GTPγS, 37° C., 1 hour; 'positive' = signal generated was higher than the positive control
Experimental: AlphaScreen® assays were performed in 96-well microplates in a final reaction volume of 60 μl. Recombinant His-Rac1, recombinant GST-PBD (PAK Binding Domain), donor and acceptor beads (PerkinElmer), and inhibitors were incubated in exchange buffer (20 mM Tris pH 7.5, 50 mM NaCl, 1 mM MgCl2, 1 mM EDTA, 500 nM GTPγS (guanosine 5′-[γ-thio]triphosphate)) at 37° C. Readings were performed on a Tecan M1000 pro microplate reader after 1 hour.

[4] = tested on: estrogen receptor response gene (SDF) in MCF7 breast cancer cells; assay: Inhibition of Estrogen Receptor Target Gene Transcription (SDF qPCR); type: cell-based; conditions: MCF7, 10 nM estradiol, 4 hours; 1 uM fulvestrant; 5 or 10 uM 0032661
Experimental: After 4 hours, RNA was harvested and converted into cDNA. qPCR analysis for SDF was performed on all samples and normalized to expression of GAPDH. The data, shown in FIG. 7, is expressed as fold change relative to SDF expression of the cFBS sample.

[5] = tested on: estrogen receptor response genes Cyclin D1 and pS2 in MCF7 breast cancer cells; assay: Inhibition of Estrogen Receptor Target Gene Protein Expression (immunoblot); type: cell-based; conditions: MCF7, 10 nM E2, 18 hours; 1 uM fulvestrant; 5 or 10 uM 0032661
Experimental: After 18 hours, protein was harvested. SDS-PAGE followed by immunoblotting of samples was performed using standard techniques. Protein lysates were immunoblotted for Estrogen Receptor (ER), Cyclin D1, pS2, and Actin.

[6] = tested on: BT474 breast cancer cells; assay: BT474 Four (4) Day Cell Viability Assay; type: cell-based; conditions: BT474, 4 days, 32661 0 μM
Experimental: BT474 breast cancer cells that are Estrogen Receptor Positive and HER2+ were grown in 5% cFBS. 5,000 cells were seeded into each well of a 96-well plate and treated with escalating doses of lapatinib, fulvestrant, and 32661.

[7] = tested on: PSA in LNCaP prostate cancer cells; assay: Inhibition of Increased Protein Levels of PSA (immunoblot); type: cell-based; conditions: 10 nM DHT, 18 hours, 5 uM enzalutamide, 10, 15 or 20 uM 0032661
Experimental: After 18 hours protein was harvested. SDS-PAGE followed by immunoblotting of samples was performed using standard techniques. Protein lysates were immunoblotted for the Androgen Receptor (AR), PSA, and Actin.

Q: `O=C1COCCN1c1cccc(NCCCCCCSc2ccnc3cc(C(F)(F)F)ccc23)c1` [Compound 0033306, 4-(3-{(6-{[7-(trifluoromethyl)quinolin-4-yl]sulfanyl)hexyl}amino]phenyl} morpholin-3-one] was tested. Which IC50 [1] did it give?
A: Its IC50 is 1.54 µM.

Q: What about the IC50 [2] of the same compound?
A: The IC50 was 3.58 µM.

Q: What about the IC50 [3] of the same compound?
A: Its IC50 is 8.2 µM.

Q: What does the source list for `C[C@]12CC[C@@H]3c4ccc(O)cc4C[C@@H](CCCCCCCCC[S+]([O-])CCCC(F)(F)C(F)(F)F)[C@H]3[C@@H]1CC[C@@H]2O` (some centres unmarked) [Fulvestrant, fulvestrant, reference compound]?
A: estrogen receptor target gene transcription (SDF) [4]: inhibit the estrogen receptor target gene transcription; protein levels of estrogen receptor target genes (Cyclin D1, pS2) [5]: inhibit the increase in protein levels of estrogen receptor target genes; cellular viability ([6]; fulvestrant 6.9 nM, lapatinib 0.0 nM): 94%; cellular viability ([6]; fulvestrant 6.9 nM, lapatinib 6.9 nM): 96%; cellular viability ([6]; fulvestrant 6.9 nM, lapatinib 20.6 nM): 96%; cellular viability ([6]; fulvestrant 6.9 nM, lapatinib 61.7 nM): 87%; cellular viability ([6]; fulvestrant 6.9 nM, lapatinib 185.2 nM): 85%; cellular viability ([6]; fulvestrant 6.9 nM, lapatinib 555.6 nM): 79%; cellular viability ([6]; fulvestrant 6.9 nM, lapatinib 1666.7 nM): 69%; cellular viability ([6]; fulvestrant 6.9 nM, lapatinib 3333.0 nM): 51%; cellular viability ([6]; fulvestrant 20.6 nM, lapatinib 0.0 nM): 94%; cellular viability ([6]; fulvestrant 20.6 nM, lapatinib 6.9 nM): 88%; cellular viability ([6]; fulvestrant 20.6 nM, lapatinib 20.6 nM): 88%; cellular viability ([6]; fulvestrant 20.6 nM, lapatinib 61.7 nM): 83%; cellular viability ([6]; fulvestrant 20.6 nM, lapatinib 185.2 nM): 82%; cellular viability ([6]; fulvestrant 20.6 nM, lapatinib 555.6 nM): 78%; cellular viability ([6]; fulvestrant 20.6 nM, lapatinib 1666.7 nM): 63%; cellular viability ([6]; fulvestrant 20.6 nM, lapatinib 3333.0 nM): 47%; cellular viability ([6]; fulvestrant 61.7 nM, lapatinib 0.0 nM): 91%; cellular viability ([6]; fulvestrant 61.7 nM, lapatinib 6.9 nM): 89%; cellular viability ([6]; fulvestrant 61.7 nM, lapatinib 20.6 nM): 89%; cellular viability ([6]; fulvestrant 61.7 nM, lapatinib 61.7 nM): 90%; cellular viability ([6]; fulvestrant 61.7 nM, lapatinib 185.2 nM): 88%; cellular viability ([6]; fulvestrant 61.7 nM, lapatinib 555.6 nM): 77%; cellular viability ([6]; fulvestrant 61.7 nM, lapatinib 1666.7 nM): 66%; cellular viability ([6]; fulvestrant 61.7 nM, lapatinib 3333.0 nM): 34%; cellular viability ([6]; fulvestrant 185.2 nM, lapatinib 0.0 nM): 94%; cellular viability ([6]; fulvestrant 185.2 nM, lapatinib 6.9 nM): 91%; cellular viability ([6]; fulvestrant 185.2 nM, lapatinib 20.6 nM): 91%; cellular viability ([6]; fulvestrant 185.2 nM, lapatinib 61.7 nM): 91%; cellular viability ([6]; fulvestrant 185.2 nM, lapatinib 185.2 nM): 88%; cellular viability ([6]; fulvestrant 185.2 nM, lapatinib 555.6 nM): 74%; cellular viability ([6]; fulvestrant 185.2 nM, lapatinib 1666.7 nM): 63%; cellular viability ([6]; fulvestrant 185.2 nM, lapatinib 3333.0 nM): 36%; cellular viability ([6]; fulvestrant 555.6 nM, lapatinib 0.0 nM): 87%; cellular viability ([6]; fulvestrant 555.6 nM, lapatinib 6.9 nM): 90%; cellular viability ([6]; fulvestrant 555.6 nM, lapatinib 20.6 nM): 90%; cellular viability ([6]; fulvestrant 555.6 nM, lapatinib 61.7 nM): 88%; cellular viability ([6]; fulvestrant 555.6 nM, lapatinib 185.2 nM): 82%; cellular viability ([6]; fulvestrant 555.6 nM, lapatinib 555.6 nM): 74%; cellular viability ([6]; fulvestrant 555.6 nM, lapatinib 1666.7 nM): 58%; cellular viability ([6]; fulvestrant 555.6 nM, lapatinib 3333.0 nM): 26%; cellular viability ([6]; fulvestrant 1666.7 nM, lapatinib 0.0 nM): 80%; cellular viability ([6]; fulvestrant 1666.7 nM, lapatinib 6.9 nM): 79%; cellular viability ([6]; fulvestrant 1666.7 nM, lapatinib 20.6 nM): 76%; cellular viability ([6]; fulvestrant 1666.7 nM, lapatinib 61.7 nM): 75%; cellular viability ([6]; fulvestrant 1666.7 nM, lapatinib 185.2 nM): 68%; cellular viability ([6]; fulvestrant 1666.7 nM, lapatinib 555.6 nM): 65%; cellular viability ([6]; fulvestrant 1666.7 nM, lapatinib 1666.7 nM): 47%; cellular viability ([6]; fulvestrant 1666.7 nM, lapatinib 3333.0 nM): 15%; cellular viability ([6]; fulvestrant 3333.0 nM, lapatinib 0.0 nM): 60%; cellular viability ([6]; fulvestrant 3333.0 nM, lapatinib 6.9 nM): 53%; cellular viability ([6]; fulvestrant 3333.0 nM, lapatinib 20.6 nM): 53%; cellular viability ([6]; fulvestrant 3333.0 nM, lapatinib 61.7 nM): 26%; cellular viability ([6]; fulvestrant 3333.0 nM, lapatinib 185.2 nM): 24%; cellular viability ([6]; fulvestrant 3333.0 nM, lapatinib 555.6 nM): 32%; cellular viability ([6]; fulvestrant 3333.0 nM, lapatinib 1666.7 nM): 20%; cellular viability ([6]; fulvestrant 3333.0 nM, lapatinib 3333.0 nM): 4%

Q: With `CNC(=O)c1ccc(N2C(=S)N(c3ccc(C#N)c(C(F)(F)F)c3)C(=O)C2(C)C)cc1F` [enzalutamide, reference compound] as the compound, how does the “increase in protein levels of PSA” value [7] read?
A: The value was “inhibit the increase in protein levels of PSA”.
